In article PMC5036131, “Fragment-based discovery of a new family of non-peptidic small-molecule cyclophilin inhibitors with potent antiviral activities” (Nature Communications, 2016):
Where two headings read alike, the source gives them in different places.

What was measured:
CypB = biological target: T1, CypB (Homo sapiens, UniProt P23284); experiment: biochemical; assay type: biochemical; conditions: PPIase enzyme assay, 20 °C, mean±s.d.; read-out: CypB IC50
T1 construct: hexahistidine tag (His-Tag) (C); made in house; host or cells: E. coli C41(DE3)
T1 sequence (P23284 34-216): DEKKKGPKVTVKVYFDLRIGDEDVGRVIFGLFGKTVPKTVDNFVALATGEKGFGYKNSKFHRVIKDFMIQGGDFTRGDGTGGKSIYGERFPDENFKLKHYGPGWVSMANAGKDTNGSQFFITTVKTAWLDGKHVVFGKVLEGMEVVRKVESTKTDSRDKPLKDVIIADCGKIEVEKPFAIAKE
Procedure: CypA and CypB proteins carrying a hexahistidine tag (His-Tag) at their carboxy terminus were expressed in E. coli and purified. Briefly, cultures of C41(DE3) cells were grown at 37 °C for 1 h until the culture reached an OD of 0.6 at 600 nm and then induced with 1 mM isopropyl-β-D-thiogalactopyranoside for 4 h at 37 °C (CypA) or overnight at 22 °C (CypB). Cell pellets were resuspended in a lysis buffer 20 mM NaH2PO4 pH 7.8, 300 mM NaCl, 7 mM β-mercaptoethanol, 1 mg ml^−1 lysozyme, 0.1 U μl^−1 desoxyribonuclease and complete protease inhibitor tablets (Roche Diagnostics Corporation, Indianapolis, Indiana). […] The bound protein was eluted in 1 ml fractions with a buffer composed of 20 mM NaH2PO4 pH 7.8, 300 mM NaCl, 250 mM imidazole, 7 mM β-mercaptoethanol and 10% glycerol, monitored by the Bradford colorimetric assay. The purity of each cyclophilin was determined by Coomassie-stained SDS–PAGE analysis.

MT4 cells = experiment: Cytotoxicity in uninfected MT4 cells; conditions: read-out: MT4 cells CC50
HCoV-229E = experiment: Anti-human coronavirus 229E activity in MRC5 cells; assay type: cell-based; conditions: 72 h, viral cytopathic effect
Huh7 cells = experiment: Cellular toxicity in Huh7 replicon cells; conditions: read-out: HCV genotype 1b replicon CC50; Huh7 cells
CYP2D6 = CYP2D6 (Homo sapiens, UniProt P10635); experiment: Cytochrome P450 enzyme inhibition assay, CYP2D6; assay type: in vitro ADME; set-up: incubated with human hepatic microsomal fractions and NADPH; from tissue; host or cells: human hepatic microsomal fractions; conditions: human hepatic microsomal fractions, up to 25 μM
Sequence of CYP2D6 (P10635 whole entry): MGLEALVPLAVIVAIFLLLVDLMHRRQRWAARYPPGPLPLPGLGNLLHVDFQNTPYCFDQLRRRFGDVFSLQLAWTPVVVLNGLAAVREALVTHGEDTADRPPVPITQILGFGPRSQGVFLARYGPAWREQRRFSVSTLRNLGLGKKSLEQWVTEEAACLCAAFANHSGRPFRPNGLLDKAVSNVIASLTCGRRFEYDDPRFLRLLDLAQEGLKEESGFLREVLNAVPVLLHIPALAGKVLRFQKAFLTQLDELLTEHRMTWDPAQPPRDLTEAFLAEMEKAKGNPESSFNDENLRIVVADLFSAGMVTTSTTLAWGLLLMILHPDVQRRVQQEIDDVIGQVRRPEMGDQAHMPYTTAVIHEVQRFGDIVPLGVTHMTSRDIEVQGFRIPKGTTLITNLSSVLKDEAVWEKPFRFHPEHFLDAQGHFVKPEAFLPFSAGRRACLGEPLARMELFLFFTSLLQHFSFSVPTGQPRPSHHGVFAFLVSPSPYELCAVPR
Procedure: (§1) Up to 25 μM of compounds 29 and 30 was incubated with human hepatic microsomal fractions and NADPH in the presence of individual probe substrates. All assays were designed so that conditions were linear with respect to time and protein concentration. Substrates were present at concentrations equal to or lower than their respective Km values. Enzyme selective products were determined by fluorometry (ethoxyresorufin O-deethylase) or by specific LC-MS/MS assays. Relative enzyme activities were determined by comparison with those assayed with DMSO vehicle instead of inhibitor. IC50 values were calculated by nonlinear curve fitting using a sigmoidal model. Positive control inhibitors for each enzyme were tested in parallel.

CYP2C9 [1] = biological target: T2, CYP2C9 (Homo sapiens, UniProt P11712); experiment: Cytochrome P450 enzyme inhibition assay, CYP2C9; assay type: in vitro ADME; set-up: incubated with human hepatic microsomal fractions and NADPH; from tissue; host or cells: human hepatic microsomal fractions; conditions: human hepatic microsomal fractions, up to 25 μM
T2 sequence (P11712 whole entry): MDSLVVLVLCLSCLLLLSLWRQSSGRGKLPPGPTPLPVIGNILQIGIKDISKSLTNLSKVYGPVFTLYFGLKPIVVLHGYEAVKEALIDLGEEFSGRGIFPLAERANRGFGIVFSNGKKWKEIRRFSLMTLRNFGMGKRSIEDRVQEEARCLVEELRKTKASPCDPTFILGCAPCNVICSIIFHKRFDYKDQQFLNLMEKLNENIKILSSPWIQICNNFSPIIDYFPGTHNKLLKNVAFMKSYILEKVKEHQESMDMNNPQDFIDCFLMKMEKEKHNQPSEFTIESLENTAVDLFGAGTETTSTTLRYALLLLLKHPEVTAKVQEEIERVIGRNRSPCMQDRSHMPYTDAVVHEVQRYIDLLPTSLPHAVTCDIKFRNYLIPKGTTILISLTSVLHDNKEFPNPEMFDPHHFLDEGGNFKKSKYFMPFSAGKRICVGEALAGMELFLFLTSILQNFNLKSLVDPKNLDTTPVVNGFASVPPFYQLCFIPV
Procedure: as §1

[2] = Human plasma protein binding, equilibrium dialysis; assay type: in vitro ADME; conditions: 2 μM, 37 °C, 3 h dialysis
Procedure: (§2) The extent of binding to pooled human plasma and to cell culture medium containing 10% fetal bovine serum was determined by equilibrium dialysis against isotonic phosphate buffer. Equilibrium dialysis was conducted at 37 °C with initial concentrations of compounds of 2 μM in the non-buffer matrix. A 3 h dialysis time was used for equilibration. Following dialysis, plasma samples were drained into pre-weighed polypropylene tubes containing buffer and buffer samples were drained into pre-weighed tubes containing blank plasma. Post-dialysis plasma and buffer weights were measured and recorded for concentration and recovery calculations. After precipitation and centrifugation, LC-MS/MS assays were used for the analysis of each of the protein/phosphate buffer-mixed matrices. Relative binding to human plasma and cell culture medium was determined in a similar manner, except that the two matrices were dialysed against each other directly and the compound was spiked into both matrices. After equilibration, the plasma sample was diluted with blank cell culture medium and the cell culture medium diluted with blank plasma.

[3] = Cell culture medium binding, equilibrium dialysis; assay type: in vitro ADME; conditions: 2 μM, 37 °C, 3 h dialysis
Procedure: as §2

CYP2C9 [4] = biological target: T2, CYP2C9; experiment: Metabolism by recombinant human cytochrome P450, CYP2C9; assay type: in vitro ADME; conditions: recombinant enzyme
Procedure: (§3) […] of compound was incubated with individual bacterially expressed recombinant human cytochromes P450 co-expressed with human NADPH cytochrome P450 reductase. […] Enzyme-selective positive control substrates were tested in parallel.

HCV genotype 1b replicon = experiment: microbe, parasite or virus in culture; assay type: cell-based, hepatitis C virus
CYP2C19 [5] = biological target: T3, CYP2C19 (Homo sapiens, UniProt P33261); experiment: Metabolism by recombinant human cytochrome P450, CYP2C19; assay type: in vitro ADME; conditions: recombinant enzyme
T3 sequence (P33261 whole entry): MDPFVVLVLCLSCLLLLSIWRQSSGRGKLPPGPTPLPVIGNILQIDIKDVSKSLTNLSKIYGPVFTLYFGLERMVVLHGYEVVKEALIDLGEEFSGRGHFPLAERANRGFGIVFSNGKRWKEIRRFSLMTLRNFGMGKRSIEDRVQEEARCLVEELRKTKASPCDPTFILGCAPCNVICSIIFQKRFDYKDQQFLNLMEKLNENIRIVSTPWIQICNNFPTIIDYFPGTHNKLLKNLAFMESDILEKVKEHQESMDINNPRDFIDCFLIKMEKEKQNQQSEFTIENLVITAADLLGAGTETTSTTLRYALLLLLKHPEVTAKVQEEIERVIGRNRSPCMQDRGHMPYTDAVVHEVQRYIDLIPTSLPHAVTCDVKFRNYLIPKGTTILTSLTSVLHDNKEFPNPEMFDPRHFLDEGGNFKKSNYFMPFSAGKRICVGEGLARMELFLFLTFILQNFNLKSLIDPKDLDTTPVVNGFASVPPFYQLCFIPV
Procedure: as §3

CYP2C19 [6] = biological target: T3, CYP2C19; experiment: Cytochrome P450 enzyme inhibition assay, CYP2C19; assay type: in vitro ADME; set-up: incubated with human hepatic microsomal fractions and NADPH; from tissue; host or cells: human hepatic microsomal fractions; conditions: human hepatic microsomal fractions, up to 25 μM
Procedure: as §1

HIV-IIIb = experiment: Anti-HIV activity in MT4 cells; assay type: cell-based, human immunodeficiency virus; conditions: 5 days
Chemical stability, 24 h = assay type: physicochemical; conditions: 37 °C, remaining
[7] = LogD determination by reverse-phase HPLC; assay type: physicochemical; conditions: octanol/water, pH 7.4
Procedure: The octanol/water partitioning (LogD) values of compounds were determined from their retention times during reverse-phase HPLC at pH 7.4 with diode array ultraviolet/visible detection. The LogD values were obtained by interpolation within a standard curve (range LogD: 0.3–5.7) generated with seven standards, with LogD values previously determined using the shake-flask method.

CYP3A4 = biological target: T4, CYP3A4 (Homo sapiens, UniProt P08684); experiment: Cytochrome P450 enzyme inhibition assay, CYP3A4; assay type: in vitro ADME; conditions: human hepatic microsomal fractions, up to 25 μM
T4 construct: incubated with human hepatic microsomal fractions and NADPH; from tissue; host or cells: human hepatic microsomal fractions
T4 sequence (P08684 2-503): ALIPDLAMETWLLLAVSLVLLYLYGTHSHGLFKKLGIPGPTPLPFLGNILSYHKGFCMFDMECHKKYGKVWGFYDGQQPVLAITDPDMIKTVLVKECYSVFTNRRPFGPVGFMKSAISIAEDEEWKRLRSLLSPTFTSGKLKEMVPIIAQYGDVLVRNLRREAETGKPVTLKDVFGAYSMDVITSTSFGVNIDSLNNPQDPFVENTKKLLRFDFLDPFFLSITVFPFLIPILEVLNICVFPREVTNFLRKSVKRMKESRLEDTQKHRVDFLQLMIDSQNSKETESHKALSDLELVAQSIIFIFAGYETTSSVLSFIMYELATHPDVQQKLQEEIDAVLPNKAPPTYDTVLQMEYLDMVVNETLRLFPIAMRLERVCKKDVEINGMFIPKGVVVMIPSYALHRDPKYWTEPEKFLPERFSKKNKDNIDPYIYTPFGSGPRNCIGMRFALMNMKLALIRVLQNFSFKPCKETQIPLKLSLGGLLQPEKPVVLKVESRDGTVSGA
Procedure: as §1

**Q.** What does the source list for `CSCCC(NC(=O)NCc1ccc(N)cc1)C(=O)N1CCCC1c1ccccc1SC.O=C(O)C(F)(F)F` (stereo not shown) [Compound 30]?
**A.** IC50 (CypB): 1.9 ± 1.5 µM; CC50 (MT4 cells): > 53 µM; EC50 (HCoV-229E): 7.2 ± 1.8 µM; CC50 (Huh7 cells): > 100 µM; Inhibition of cytochrome P450 activity, IC50 CYD2D6 (CYP2D6): Neither compound 29 nor compound 30 significantly inhibited; IC50 (CYP2D6; read-out: Inhibition of cytochrome P450 activity, IC50 CYD2D6): > 25 µM; IC50 (CYP2C9 [1]): > 25 µM; Inhibition of cytochrome P450 activity, IC50 CYP2C9 (CYP2C9 [1]): Neither compound 29 nor compound 30 significantly inhibited; Human plasma binding Bound [2]: 85.1%; Human plasma binding Unbound [2]: 14.9%; Cell culture medium (CCM) binding Unbound [3]: 23.2%; Rate of metabolism by human cytochrome P450 CYP2C9 (CYP2C9 [4]): 0.49 pmol/pmol P450/min; EC50 (HCV genotype 1b replicon; Huh7 cells, 3 days, HCV RNA, read-out: HCV genotype 1b replicon EC50): 1.4 ± 1.2 µM; EC50 (HCV genotype 1b replicon; wild-type genotype 1b replicon, comparison with mutated replicons (Table 3), read-out: EC50 HCV (WT) subgenomic replicon): 2.1 ± 0.09 µM; Rate of metabolism by human cytochrome P450 CYP2C19 (CYP2C19 [5]): 6.21 pmol/pmol P450/min; Rate of metabolism by human cytochrome P450 CYP2C19 (CYP2C19 [5]; listed as compound 30): metabolized at the highest rate; IC50 (CYP2C19 [6]): > 25 µM; Inhibition of cytochrome P450 activity, IC50 CYP2C19 (CYP2C19 [6]): Neither compound 29 nor compound 30 significantly inhibited; EC50 (HIV-IIIb): 15 ± 1.2 µM; 24-hour stability HCl (pH 1.0) (Chemical stability, 24 h): 92%; 24-hour stability PBS (pH 7.4) (Chemical stability, 24 h): 100%; 24-hour stability PBS (pH 7.4) (Chemical stability, 24 h; listed as compound 30): not degraded; LogD [7]: 2.6; IC50 (CYP3A4): 0.6 µM; Inhibition of cytochrome P450 activity, IC50 CYP3A4 (CYP3A4): potent inhibitors
